Experimental data from ChEMBL document CHEMBL2424534, “Design and synthesis of non-TZD peroxisome proliferator-activated receptor (PPAR) modulator” (2013).

How the values were obtained:
[1] = biological target: T1, Peroxisome proliferator-activated receptor gamma (Homo sapiens) (UniProt P37231); test: Agonist activity at PPARgamma (unknown origin) transfected in HEK293 cells assessed as transcriptional activity at 10 uM relative to rosiglitazone; type: cell-based
T1 sequence (whole entry): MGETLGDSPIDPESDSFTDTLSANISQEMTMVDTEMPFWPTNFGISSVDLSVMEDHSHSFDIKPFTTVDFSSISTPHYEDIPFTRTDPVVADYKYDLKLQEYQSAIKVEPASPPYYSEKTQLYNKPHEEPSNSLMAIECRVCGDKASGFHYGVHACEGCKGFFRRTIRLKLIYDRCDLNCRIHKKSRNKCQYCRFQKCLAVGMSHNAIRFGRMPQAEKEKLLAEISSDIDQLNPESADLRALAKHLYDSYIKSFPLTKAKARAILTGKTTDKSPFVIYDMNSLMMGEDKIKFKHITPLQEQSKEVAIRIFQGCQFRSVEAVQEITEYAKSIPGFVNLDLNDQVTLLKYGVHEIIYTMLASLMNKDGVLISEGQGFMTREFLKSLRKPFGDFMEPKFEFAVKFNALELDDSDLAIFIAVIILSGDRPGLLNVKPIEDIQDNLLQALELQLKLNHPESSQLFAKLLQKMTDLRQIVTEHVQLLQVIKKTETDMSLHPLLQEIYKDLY

[2] = biological target: T1, Peroxisome proliferator-activated receptor gamma (Homo sapiens); test: Binding affinity to PPARgamma (unknown origin) at 10 uM by Polarscreen competitor assay relative to rosiglitazone
3T3-L1 [3] = test: Induction of insulin-stimulated [14C]deoxy-glucose uptake in mouse 3T3L1 cells pretreated at 10 uM for 24 hrs before insulin stimulation by scintillation counting relative to vehicle-treated control; type: functional
3T3-L1 [4] = test: Induction of adipogenesis in mouse 3T3L1 cells at 20 ug/ml by microscopic analysis relative to rosiglitazone; type: functional

Row | Structure (SMILES) | Emax [1] [%] | Imax [2] [%] | fold change (FC) (3T3-L1 [3]) | Emax at 20 µg/mL (3T3-L1 [4]) [%]
1 | COc1ccc(S(=O)(=O)Nc2cnc(OC3CCN(c4ccccc4)CC3)c(Cl)c2)cc1 | 15 | 47 | 1.12 | 30
2 | O=S(=O)(Nc1cnc(OC2CCN(c3ccccc3)CC2)c(Cl)c1)c1ccc(C(F)(F)F)cc1 | 14 | 98 | 0.99 | 20
3 | Cc1ccccc1S(=O)(=O)Nc1cnc(OC2CCN(c3ccccc3)CC2)c(Cl)c1 | 12 | 72 | 0.97 | 22
4 | O=S(=O)(Nc1cnc(OC2CCN(c3ccccc3)CC2)c(Cl)c1)c1ccc(Cl)cc1Cl | 14 | 79 | 1.26 | 18
5 | O=S(=O)(Nc1cnc(OC2CCN(c3ccccc3)CC2)c(Cl)c1)c1ccc(-c2ccccn2)s1 | 13 | 76 | 0.93 | 15
6 | O=S(=O)(Nc1cnc(OC2CCN(c3ccccc3)CC2)c(Cl)c1)c1ccc(F)cc1F | 12 | 78 | 1.12 | 21
7 | CN(CCOc1ncc(NS(=O)(=O)c2ccc(Cl)cc2Cl)cc1Cl)c1nc2ccccc2o1 | 16 | 82 | 1.12 | 22
8 | COc1ccc(S(=O)(=O)Nc2cnc(OC3CCN(c4ccccc4)CC3)c(Cl)c2)c(OC)c1 | 17 | 51 | 1.44 | 20
9 | O=S(=O)(Nc1cnc(OC2CCN(c3ccccc3)CC2)c(Cl)c1)c1ccc(F)c(Cl)c1 | 10 | 79 | 0.98 | 20
10 | N#Cc1ccc(S(=O)(=O)Nc2cnc(OC3CCN(c4ccccc4)CC3)c(Cl)c2)cc1 | 11 | 37 | 1.07 | 20
11 | CN(CCOc1ccc(NS(=O)(=O)c2ccc(Cl)c(Cl)c2)cn1)c1nc2ccccc2o1 | 14 | 78 | 1.02 | 20
